In ChEMBL document CHEMBL1201862, “PubChem BioAssay data set” (2004):
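Tested at 5 concentrations; 48 h exposure; 96-well plates; endpoints linearly interpolated, else capped at highest concentration. Abbreviation: GI50, concentration required for 50% inhibition of growth.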 Calls of active or inactive are those of the source. Rule as the data show it: active = GI50 up to about 1.1 µM and inactive = higher.

What was measured:
Experiment in all cases: DTP human tumour cell line panel, 48 h
ACHN = system: ACHN
SW-620 = system: SW-620
SF-539 = system: SF-539
K562 = system: K562
A549 = system: A549
SR = system: SR
UO-31 = system: UO-31
RPMI-8226 = system: RPMI-8226
SK-MEL-2 = system: SK-MEL-2
CCRF-CEM = system: CCRF-CEM
HOP-62 = system: HOP-62
MCF7 = system: MCF7
SF-268 = system: SF-268
LOX IMVI = system: LOX IMVI
UACC-62 = system: UACC-62
DU-145 = system: DU-145
CAKI-1 = system: CAKI-1
MDA-MB-231 = system: MDA-MB-231
SK-MEL-28 = system: SK-MEL-28

Measured: GI50

CCCCCCCCCCCC1NC(N)=NC(CCCO)=C1C(=O)OC (stereo not drawn)
inactive: ACHN 4.22 µM | SW-620 1.61 µM | SF-539 2.96 µM | K562 1.71 µM | A549 5.92 µM | SR 3.33 µM | UO-31 15.3 µM | RPMI-8226 2.32 µM | SK-MEL-2 1.63 µM | CCRF-CEM 1.59 µM | HOP-62 2.82 µM | MCF7 1.79 µM | SF-268 2.48 µM | LOX IMVI 1.66 µM | UACC-62 4.38 µM | DU-145 9.35 µM | CAKI-1 7.06 µM | MDA-MB-231 2.08 µM

CC(C)C1OC(=O)/C=C/C=C/C=C/C=C/C=C/CC(O)CC(O)CC(O)CC(O)CC(O)CC(O)CC(O)CC(O)/C=C/C1C (stereo not drawn)
inactive: ACHN > 100 µM | SW-620 > 100 µM | SF-539 > 100 µM | K562 > 100 µM | A549 > 100 µM | SR > 100 µM | UO-31 > 100 µM | RPMI-8226 > 100 µM | SK-MEL-2 > 100 µM | SK-MEL-28 > 100 µM | CCRF-CEM > 100 µM | HOP-62 > 100 µM | MCF7 > 100 µM | SF-268 > 100 µM | LOX IMVI > 100 µM | DU-145 > 100 µM | CAKI-1 > 100 µM | MDA-MB-231 > 100 µM

C=C(Br)C/N=C/N(C)C
inactive: ACHN > 100 µM | SF-539 > 100 µM | K562 > 100 µM | A549 > 100 µM | SR > 100 µM | UO-31 > 100 µM | RPMI-8226 > 100 µM | SK-MEL-2 > 100 µM | SK-MEL-28 > 100 µM | CCRF-CEM > 100 µM | HOP-62 > 100 µM | MCF7 > 100 µM | SF-268 > 100 µM | LOX IMVI > 100 µM | UACC-62 > 100 µM | DU-145 > 100 µM | CAKI-1 > 100 µM | MDA-MB-231 > 100 µM

CC(C)(C)n1c(=O)[nH]n(C2NN=Cc3cccc4cccc2c34)c1=O (stereo not drawn)
inactive: SW-620 47.3 µM | SF-539 16.9 µM | K562 17.9 µM | A549 18.7 µM | SR 11.4 µM | UO-31 14.1 µM | RPMI-8226 16.3 µM | SK-MEL-2 32.1 µM | SK-MEL-28 57.3 µM | CCRF-CEM 11.5 µM | MCF7 30.6 µM | SF-268 26.1 µM | LOX IMVI 26.9 µM | UACC-62 23.9 µM | DU-145 > 100 µM | CAKI-1 27.5 µM | MDA-MB-231 21.5 µM

O=C(CSc1n[nH]c(=O)[nH]c1=O)NNC(=O)c1cccc2nc3ccccc3nc12
inactive: ACHN > 100 µM | SW-620 > 100 µM | SF-539 71.6 µM | K562 > 100 µM | A549 39.4 µM | SR > 100 µM | RPMI-8226 > 100 µM | SK-MEL-2 > 100 µM | SK-MEL-28 > 100 µM | CCRF-CEM > 100 µM | HOP-62 > 100 µM | MCF7 38.2 µM | SF-268 > 100 µM | LOX IMVI 46.1 µM | UACC-62 > 100 µM | DU-145 36.5 µM | CAKI-1 > 100 µM | MDA-MB-231 > 100 µM

CN1C(=O)c2ccccc2NC(=O)C12O[C@@H]2c1ccccc1 (stereo partly drawn)
inactive: ACHN > 100 µM | SW-620 > 100 µM | SF-539 > 100 µM | A549 > 100 µM | SR > 100 µM | UO-31 > 100 µM | RPMI-8226 > 100 µM | SK-MEL-2 > 100 µM | SK-MEL-28 > 100 µM | CCRF-CEM > 100 µM | HOP-62 > 100 µM | MCF7 > 100 µM | SF-268 > 100 µM | LOX IMVI > 100 µM | UACC-62 > 100 µM | DU-145 > 100 µM | CAKI-1 75.2 µM | MDA-MB-231 67.6 µM

O=S(=O)(O)c1ccc2c(/N=N/c3ccc(S(=O)(=O)O)c4ccccc34)c(O)c(S(=O)(=O)O)cc2c1
inactive: ACHN > 100 µM | SW-620 > 100 µM | SF-539 > 100 µM | K562 > 100 µM | SR > 100 µM | UO-31 > 100 µM | RPMI-8226 > 100 µM | SK-MEL-2 > 100 µM | SK-MEL-28 > 100 µM | CCRF-CEM > 100 µM | HOP-62 > 100 µM | MCF7 > 100 µM | SF-268 > 100 µM | LOX IMVI > 100 µM | UACC-62 > 100 µM | DU-145 > 100 µM | CAKI-1 > 100 µM | MDA-MB-231 > 100 µM

CCOC(=O)Nc1nn(C)/c(=N/Cc2ccccc2)s1
inactive: ACHN > 100 µM | SW-620 > 100 µM | SF-539 > 100 µM | K562 > 100 µM | A549 > 100 µM | SR > 100 µM | UO-31 33.4 µM | RPMI-8226 > 100 µM | SK-MEL-2 > 100 µM | SK-MEL-28 > 100 µM | CCRF-CEM > 100 µM | HOP-62 > 100 µM | MCF7 > 100 µM | LOX IMVI > 100 µM | UACC-62 > 100 µM | DU-145 > 100 µM | CAKI-1 > 100 µM | MDA-MB-231 > 100 µM
